For data set [1] the following is noted: Wani et al.; cited from earlier work.
The conditions of data set [2]: cited from earlier work.
A further data set deals with T1, topoisomerase Type I (Bos taurus, UniProt F1MN93).
T1 sequence (F1MN93 1-767): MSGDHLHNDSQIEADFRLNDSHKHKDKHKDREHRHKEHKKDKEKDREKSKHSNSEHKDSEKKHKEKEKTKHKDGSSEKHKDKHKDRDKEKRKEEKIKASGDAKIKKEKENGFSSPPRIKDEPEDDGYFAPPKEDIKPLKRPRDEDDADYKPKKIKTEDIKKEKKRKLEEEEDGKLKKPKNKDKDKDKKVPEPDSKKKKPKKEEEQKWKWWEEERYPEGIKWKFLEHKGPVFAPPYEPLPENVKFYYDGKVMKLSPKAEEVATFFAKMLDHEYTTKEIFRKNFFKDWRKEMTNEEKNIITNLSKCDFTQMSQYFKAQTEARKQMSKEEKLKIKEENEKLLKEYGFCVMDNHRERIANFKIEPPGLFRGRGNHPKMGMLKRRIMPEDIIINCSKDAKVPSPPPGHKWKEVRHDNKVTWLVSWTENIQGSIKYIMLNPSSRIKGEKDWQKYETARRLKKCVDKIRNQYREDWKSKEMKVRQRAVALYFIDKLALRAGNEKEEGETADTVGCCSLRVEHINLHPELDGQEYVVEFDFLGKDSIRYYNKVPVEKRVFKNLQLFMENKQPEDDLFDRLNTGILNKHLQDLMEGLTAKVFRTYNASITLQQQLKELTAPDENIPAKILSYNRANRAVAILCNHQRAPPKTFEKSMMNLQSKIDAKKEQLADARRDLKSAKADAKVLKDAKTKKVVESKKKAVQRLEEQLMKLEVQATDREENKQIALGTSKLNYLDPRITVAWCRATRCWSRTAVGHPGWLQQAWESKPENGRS
In words: biochemical. The method, then: Cleavable Complex in vitro Assay
The relative topoisomerase Type I inhibitory activity of the compounds of formula (I) was determined by cleavable complex in vitro assay. This assay performed according to the method described in Hsiang, Y. et al., J. Biol. Chem., 260:14873-14878 (1985), correlates well with in vivo anti-tumor activity of topoisomerase inhibitors in animal models of cancer, e.g., camptothecin and its analogs. See Hsiang et al., Cancer Research, 49:4385-4389 (1989) and Jaxel et al., Cancer Research, 49:1465-1469 (1989).

The nature of data set [3]: Oxidation during purification. As to conditions: oxidizes to the sulfinyl compound of Example 27. In kind it is physicochemical. How it is done: Mp. 195° C. (dec). MS MH+554.
The subject of a further data set is topoisomerase I. The following applies: background on camptothecin; cited from earlier work.
In the next data set the test system is certain solid tumors. The following applies: laboratory animals; cited from earlier work.
For a further data set, the system named is tumor. The following applies: background on camptothecin; cited from earlier work.
The test system of the next data set is leukemia (L-1210). As to conditions: laboratory animals; cited from earlier work.

Counter-ions that a name gives are not always drawn. Like-named read-outs stand apart in the source and are kept apart here. Where only a bound is given, the exact number is not on record here.

The values below come from patent US6100273A, “Water soluble camptothecin derivatives” (priority 1997, dated 2000).

With `CCC1(O)C(=O)OCc2c1cc1n(c2=O)Cc2cc3cc4c(cc3nc2-1)OCO4` (stereo not drawn) [10,11-methylenedioxycamptothecin], in data set [1], the “potency relative to unsubstituted camptothecin” value is “more potent”. Also, in data set [2] (compared with camptothecin), the water solubility entry is given as “as poor as camptothecin”.
`CC[C@@]1(O)C(=O)OCc2c1cc1n(c2=O)Cc2c-1nc1cc3c(cc1c2CSc1ccc(N)cc1)OCCO3` [Example 18, 7-(4-Aminophenylthio)methyl-10,11-(ethylenedioxy)-20(S)-camptothecin]: the half-maximal inhibitory concentration (IC50) at topoisomerase Type I is above 500 nM.
As for `CC[C@@]1(O)C(=O)OCc2c1cc1n(c2=O)Cc2c-1nc1cc3c(cc1c2C[S+]([O-])CCCN(C)C)OCCO3` (stereo partly drawn) [Example 27, 7-(3-Dimethylaminopropylsulfinyl)methyl-10,11-(ethylenedioxy)-20(S)-camptothecin], in data set [3], the oxidation during purification entry is “readily oxidize”.
Compound `CCCCOP(=O)(Cc1c2c(nc3cc4c(cc13)OCCO4)-c1cc3c(c(=O)n1C2)COC(=O)[C@]3(O)CC)OCCCC` [Example 15, 7-Di-n-butylphosphonomethylene-10,11-(ethylenedioxy)-20(S)-camptothecin] yielded an IC50 at topoisomerase Type I above 2000 nM.
At topoisomerase Type I, `CCC1(O)C(=O)OCc2c1cc1n(c2=O)Cc2c-1nc1cc3c(cc1c2C[n+]1ccccc1)OCCO3` (racemic) [Example 31, 7-Pyridinium methylene-10,11 ethylenedioxy-20(R,S)-camptothecin chloride] gave an IC50 above 1000 nM.
On to `CC[C@@](O)(C(=O)O)c1cc2n(c(=O)c1CO)Cc1cc3ccccc3nc1-2` [sodium salt], for which the “solubility in physiologically compatible, aqueous media” value in data set [2] is recorded as “soluble”.
For `CC[C@@]1(O)C(=O)OCc2c1cc1n(c2=O)Cc2c-1nc1cc3c(cc1c2CSc1ccc(NC(C)=O)cc1)OCCO3` [Example 17, 7-(4-Acetamidophenylthio)methyl-10,11-(ethylenedioxy)-20(S)-camptothecin], the half-maximal inhibitory concentration (IC50) at topoisomerase Type I (read-out: topoisomerase Type I inhibitory activity (IC50), concentration at which 50% of the DNA substrate has been captured by topoisomerase 1) was above 500 nM.
Take `CC[C@@]1(O)C(=O)OCc2c1cc1n(c2=O)Cc2cc3ccccc3nc2-1` [Camptothecin]: the “topoisomerase I inhibition” value in the data set with topoisomerase I was “topoisomerase I inhibitor”. Moreover, the “effectiveness in the treatment of certain solid tumors” value in the data set on certain solid tumors was “effective”. Besides, the antitumor activity entry in the data set on tumor is given as “potent antitumor agent”. The “effectiveness in the treatment of leukemia (L-1210)” value in the data set on leukemia (L-1210) is given as “effective”. In addition, the “solubility in physiologically compatible, aqueous media” value in data set [2] is reported as “essentially insoluble”.
For `CC[C@@]1(O)C(=O)OCc2c1cc1n(c2=O)Cc2c-1nc1cc3c(cc1c2C[n+]1cccc(CO)c1)OCCO3` [Example 36, 7-(3'-Hydroxymethylpyridinium)methylene-10,11-ethylenedioxy-20(S)-camptothecin chloride], the IC50 at topoisomerase Type I (concentration at which 50% of the DNA substrate has been captured by topoisomerase 1, read-out: topoisomerase Type I inhibitory activity (IC50)) is above 500 nM.
At topoisomerase Type I, `CC[C@@]1(O)C(=O)OCc2c1cc1n(c2=O)Cc2c-1nc1cc3c(cc1c2CSc1ccc(NC(=O)CN(C)C)cc1)OCCO3` [Example 28, 7-(4-(2-Dimethylaminoacetamido)phenylthio)methyl-10,11-(ethylenedioxy)-20(S)-camptothecin] gave a concentration for half-maximal inhibition (IC50) above 500 nM.

What is called IC50 is the point on the concentration scale where inhibition reaches its midpoint.
